The values that follow come from US20100267750A1, “METHODS AND COMPOSITIONS FOR TREATING PAIN” (priority 2005, published 2010).

Bounds are passed on as bounds.

The target in one data set is T1, hTRPA1 (Homo sapiens, UniProt O75762, K186N).
T1 construct: expressed in transfected cells; host or cells: HEK293/TREx (Invitrogen), stably transfected, tetracycline-induced
Description: hTRPA1 Fluo4 calcium flux assay in HEK293/TREx cells. It counts as cell-based. The conditions noted are these: Table 2; read-out: hTRPA1 Fluor IC50. The text has this: The assay depended on detection of the rise in intracellular Ca^2+ concentration ([Ca^2+]i) following channel activation in cells inducibly expressing the TRPA1 channel. Ca^2+ rise was quantified with the use of fluorescent Ca^2+ indicators that were loaded into cells and thereafter indicated the [Ca^2+]i. Ca^2+ influx followed activation of the TRPA1 channel. Compounds inhibiting the [Ca^2+]i rise were considered hits for further investigation.
These cells were maintained in the growth medium recommended by the manufacturer supplemented with 100 μg/ml hygromycin to promote retention of the TRPA1 construct. After growing to near confluency, cells were plated at a density of ˜25,000 cells/well in 384 well CellBind plates (Corning) in the presence of 1 μg/ml tetracycline, and allowed to grow for 20-30 hrs. A nearly confluent monolayer resulted. […] These controls defined a screening window, and “hits” were defined as those compounds inhibiting the fluorescence response by at least 40%. IC50 values were determined for compounds defined as “hits.” The Fluo4 cell-based fluorescence assay was used to determine the intracellular Ca^2+ concentration in the presence of varying drug concentration. […]
(In general: A change in cytosolic calcium serves as a functional read-out for many receptors and channels.)

Data set [1] deals with carrageenan-induced inflammation (paw volume). Nature of the data set: Carrageenan model of acute inflammatory pain. As to conditions: IP, 30-60 minutes before testing. It counts as in vivo, rat. As for the experimental part:
In this study, the drug administered was either a TRPA1 inhibitor or the non-steroidal anti-inflammatory diclofenac. Following administration of both carrageenan and drug or vehicle control, paw volume was measured and used to assess decreased inflammation.

Data set [2] has as its system bladder pressure in BOO rats. Description: Partial bladder outlet obstruction (BOO) model of incontinence. The conditions noted are these: intravesical infusion.
Description: Efficacy of the varying doses of TRPA1 inhibitory compound were compared to controls administered excipients alone (sham control). Efficacy was also compared to rats administered a positive control, such as atropine.
Female Sprague Dawley rats were used in these studies. Rats underwent surgical partial bladder outlet obstruction (BOO) or sham surgery. Five weeks after BOO (or sham) surgery, an intravesical catheter was surgically implanted into the dome of the bladder for conducting urodynamic studies. One week after catheter implantation (6 weeks after BOO or sham), urodynamic studies began. […] An analytic balance beneath the wire-bottom animal cage measured the amount of urine voided during continuous cystometry. […]
For each CMG cycle, the following parameters were assessed: infused volume (the amount of saline or drug infused for each CMG cycle); void volume (the amount of urine voided by the animal for each CMG cycle); minimum pressure (minimum pressure during filling); threshold pressure (pressure prior to micturition when bladder pressure begins to rise steeply); average pressure (average pressure during filling and before threshold); maximum pressure; intermicturition interval (time between two subsequent voiding events); urine flow rate index.
Data set [3] has as its system CFA induced thermal hyperalgesia. Description: CFA model of inflammatory pain. On the procedure: FIG. 4 summarizes data obtained following testing of Compound 200 in the CFA model. Naive rats were pretested for sensitivity to a heat stimulus in the Hargreaves apparatus. The next day, 100 μL of complete Freund's adjuvant (CFA) was injected into the plantar surface of the right hindpaw. Two days later, in the morning, the rats were again pretested. In the afternoon, rats were injected with either vehicle control or with drug (TRPA1 inhibitor 200 or the non-steroidal anti-inflammatory diclofenac). Drugs or vehicle were injected intraperitoneally, and 45 minutes later rats were tested for hyperalgesia by applying the heat source to the CFA injected and uninjected hindpaw and measuring latency to withdrawal.

In data set [4] the test system is formalin induced paw flinching. Description: Formalin model of pain. The data set is classed as in vivo, rat. As to conditions: 2% formalin intraplantar, drug 15 min before. On the procedure: As outlined above, the formalin model involves injection of a formalin solution intradermally or […]. Injection of formalin solution invokes a biphasic response, and thus provides a model for both nociceptive and inflammatory pain. The formalin model can be used to evaluate the effectiveness of an exemplary TRPA1 inhibitor in the treatment of pain. […] Briefly, the following protocol was followed. Male Holtzmann rats received intraplantar injections of 50 μL of 2% formalin. Paw flinching was detected by an automated sensor detecting movement of a small metal band placed on the injected hind paw. Drug or vehicle was administered approximately 15 minutes prior to the injection of formalin. The animal's response to injection of the irritant was measured by counting flinches per minutes during the Early Phase (the first 5 minutes following injection of formalin), during the Late Phase (approximately 30 minutes after injection of formalin), and during the intervening pain free phase. In FIG. 2, the right most bar for each data set (Early Phase and Late Phase) represents administration of vehicle alone and the left most bar represents administration of gabapentin. […]

Data set [5] has as its system bradykinin induced tactile allodynia. Description: Bradykinin induced pain model. It counts as in vivo, rat. As for the experimental part:
As outlined above, the bradykinin model involves an intraplantar injection of a 5 ng/uL solution of bradykinin. Injection of the bradykinin solution typically causes a rapid sensitization. Sensitization is measured by assessing the thermal escape latency of the injected paw in response to a mild thermal stimulus delivered by a modified Hargreaves apparatus. FIGS. 1a and 1b summarize data obtained following testing of Compound 200 in the bradykinin model. This study examined the antinociceptive effects of 200 mg/kg, 50 mg/kg, and 12.5 mg/kg intraperitoneal Compound 200 on bradykinin induced tactile allodynia. […] Inhibitor or vehicle were injected intraperitoneally (IP). […] Throughout the study, general behavioral assessments were made during each period of observation. Observations included tactile allodynia (vocalization/agitation induced by light touch applied to the body surface), spontaneous vocalization, biting and chewing of body surface, loss of hind limb placing and stepping reflex, loss of hind limb weight bearing, and loss of righting reflex. Additionally, mechanical allodynia was assessed and measured. The results provided in FIGS. 1a and 1b are based on assessment of mechanical allodynia.

The nature of data set [6]: Plasma levels / pharmacokinetics in male Sprague-Dawley rat. It counts as in vivo. The conditions noted are these: oral suspension 12 mg/kg. As for the experimental part: Compound 200 plasma levels were determined via HPLC/MS/MS following a single intravenous bolus dose of 0.9 mg/kg, an intraperitoneal dose of 12 mg/kg (suspension), and an oral dose of 12 mg/kg (suspension) in the male Sprague-Dawley rat. […] For intraperitoneal administration, Compound 200 was formulated as a uniform suspension in CMC (carboxymethylcellulose) at a target concentration of 1 mg/mL and administered at a dose volume of 10 mL/kg. For oral administration, Compound 200 was formulated as a uniform suspension in CMC (carboxymethylcellulose), at a target concentration of 1 mg/mL, administered by gavage, at a dose volume of 10 mL/kg, to the conscious, fasted, male Sprague-Dawley rat.

T1 sequence (O75762 whole entry K186N): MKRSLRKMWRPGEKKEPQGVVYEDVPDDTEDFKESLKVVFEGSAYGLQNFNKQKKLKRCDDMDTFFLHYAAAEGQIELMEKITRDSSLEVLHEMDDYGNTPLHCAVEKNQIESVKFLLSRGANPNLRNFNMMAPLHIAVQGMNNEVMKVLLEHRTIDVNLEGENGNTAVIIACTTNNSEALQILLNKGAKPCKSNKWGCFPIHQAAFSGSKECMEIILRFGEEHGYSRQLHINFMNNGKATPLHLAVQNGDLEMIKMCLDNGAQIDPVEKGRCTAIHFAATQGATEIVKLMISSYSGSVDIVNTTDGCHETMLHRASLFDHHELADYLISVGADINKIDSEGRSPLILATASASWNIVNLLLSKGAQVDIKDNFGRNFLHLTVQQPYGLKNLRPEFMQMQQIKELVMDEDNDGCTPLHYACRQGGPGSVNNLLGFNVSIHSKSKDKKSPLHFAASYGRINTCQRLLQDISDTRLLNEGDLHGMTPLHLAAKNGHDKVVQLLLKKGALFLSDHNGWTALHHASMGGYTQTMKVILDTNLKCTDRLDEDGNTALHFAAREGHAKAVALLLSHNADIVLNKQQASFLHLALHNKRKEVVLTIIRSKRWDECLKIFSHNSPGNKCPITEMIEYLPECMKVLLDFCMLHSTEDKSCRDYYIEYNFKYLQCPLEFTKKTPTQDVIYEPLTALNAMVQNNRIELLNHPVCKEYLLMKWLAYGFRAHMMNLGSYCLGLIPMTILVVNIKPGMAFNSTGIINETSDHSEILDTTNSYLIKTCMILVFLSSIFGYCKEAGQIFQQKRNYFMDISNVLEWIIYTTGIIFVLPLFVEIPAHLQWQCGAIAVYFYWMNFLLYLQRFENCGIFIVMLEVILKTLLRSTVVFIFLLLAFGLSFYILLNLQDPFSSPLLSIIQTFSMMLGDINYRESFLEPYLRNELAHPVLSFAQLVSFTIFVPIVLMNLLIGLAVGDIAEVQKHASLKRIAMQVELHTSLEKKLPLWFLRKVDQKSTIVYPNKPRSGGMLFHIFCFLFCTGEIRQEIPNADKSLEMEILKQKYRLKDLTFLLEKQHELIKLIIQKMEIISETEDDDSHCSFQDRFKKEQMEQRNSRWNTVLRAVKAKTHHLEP

In the case of `COC(=O)c1ccc(C)c(NC(=O)Cn2cnc3c2c(=O)n(C)c(=O)n3C)c1` [Compound 346], the IC50 (as a rule, the concentration needed to halve the response being measured) on hTRPA1 is at most 30 µM.

In the case of `CC(C)c1ccc(NC(=O)Cn2cnc3c2c(=O)n(C)c(=O)n3C)cc1` [Compound 200, 2-(1,3-dimethyl-2,6-dioxo-1,2,3,6-tetrahydropurin-7-yl)-N-(4-isopropylphenyl)acetamide], the “paw volume (inflammation)” value in data set [1] was “decreased paw volume”. In addition, in data set [2], the maximum bladder pressure result is reported as “decreased” and the threshold bladder pressure result is “decreased”. Besides, in data set [3] (IP, tested 45 minutes later), the “control paw (uninflamed) sensation” value is given as “not affected”; the “efficacy compared with diclofenac” value is “superior to diclofenac”; the “thermal hyperalgesia, CFA injected paw” value is recorded as “reduced thermal hyperalgesia”. In data set [3] (rat, in vivo, 45 min), the toxicity result is given as “without toxicity”. Further, in data set [4], the “flinches per minute, Early Phase” value is given as “substantially reduced” and the “flinches per minute, Late Phase” value is listed as “substantially reduced”. In addition, in data set [5] (IP 12.5, 50, 200 mg/kg, 30 min before bradykinin), the “effect on mechanical threshold after bradykinin injection” value was “dose dependent effect”. Also, the behavioral parameters result in data set [5] (IP doses up to 200 mg/kg) is “no changes”. Further, the sedation entry in data set [5] (highest dose (200 mg/kg IP)) is given as “only mild sedation was observed in 3 of 8 rats”. Moreover, the “time at which Cmax occurred” value in data set [6] is recorded as 45 min.
